The compounds below were run on histone deacetylase (HDAC) (assay: cellular acetylation assay (histone acetylation ELISA in PC3 cells)). Settings: compound 1 μM, 24 h incubation, ELISA with antibodies against acetylated histone H3 or H4.
Assay type: cell-based, human
Method: In this assay, acetylation of histones is monitored in PC3 cells. High acetylation correlates with inhibition of histone deacetylase by compounds. Cell viability is monitored in parallel to estimate the cytotoxicity of compounds.
PC3 cells, a human prostate carcinoma cell line, are seeded as 1800 cells per well of a 384-well microtiterplate in RPMI 1640 (including 5% FCS, 2 mM glutamine and pen/strep).
After 48 h at 37° C. pre-diluted compounds are added to a final concentration of 1 uM. Compounds are pre-diluted in dimethyl sulfoxide (DMSO) resulting in a final concentration of DMSO of 0.5% per well.
After 24 h incubation cell viability is determined by adding cell proliferation reagent WST-1 (Roche Molecular Biochemicals). Another 60 min later the optical density (OD) is measured (450 nm versus 690 nm).
After measurement the cell layer is prepared for the ELISA reaction. Medium is aspirated and cells are fixed in ethanol at −20° C. for 60 min. After washing with PBS/Tween the blocking solution (PBS/5% FCS/Tween) is added and the cell layer is washed again. Antibodies against acetylated histone H3 or H4 (rabbit polyklonal IgG, Upstate Biotechnologie) are added at a dilution of 1:200 for 60 min at 37° C. As a second antibody goat anti rabbit IgG (H+L) humanIgG adsorbed-HRP conjugate (Dako) is used (1:2000 diluted). Cells are washed 3 times and the peroxidase substrate ABTS is allowed to react for 30–60 min at 37° C. The OD is measured at 405 nm.
The percentage of acetylation is calculated after substraction of blank O.D.s: […]
`CCCC(C)NC(=O)c1ccc(C(=O)Nc2ccccc2N)s1` (stereo not shown) [Example 1-1, Thiophene-2,5-dicarboxylic acid 2-[(2-amino-phenyl)-amide]5-[(1-methyl-butyl)-amide]] was tested, and the “cell acetylation (PC3, 1 μM) [% of control]” value was 137.2 % of control.
In the case of `CCCCN(CCCC)CCCNC(=O)c1ccc(C(=O)Nc2ccccc2N)s1` [Example 1-4, Thiophene-2,5-dicarboxylic acid 2-[(2-amino-phenyl)-amide]5-[(3-dibutylamino-propyl)-amide]], the “cell acetylation (PC3, 1 μM) [% of control]” value is reported as 195.7 % of control.
In the case of `CCCCCC(C)NC(=O)c1ccc(C(=O)Nc2ccccc2N)s1` (stereo not shown) [Example 1-6, Thiophene-2,5-dicarboxylic acid 2-[(2-amino-phenyl)-amide]5-[(1-methyl-hexyl)-amide]], the “cell acetylation (PC3, 1 μM) [% of control]” value is reported as 122.9 % of control.
For `CN(C)CC(C)(C)CNC(=O)c1ccc(C(=O)Nc2ccccc2N)s1` [Example 1-17, Thiophene-2,5-dicarboxylic acid 2-[(2-amino-phenyl)-amide]5-[(3-dimethylamino-2,2-dimethylpropyl)-amide]], the “cell acetylation (PC3, 1 μM) [% of control]” value was 149.8 % of control.
For `CN(C)CCNC(=O)c1ccc(C(=O)Nc2ccccc2N)s1` [Example 1-18, Thiophene-2,5-dicarboxylic acid 2-[(2-amino-phenyl)-amide]5-[(2-dimethylaminoethyl)-amide]], the “cell acetylation (PC3, 1 μM) [% of control]” value was 233.9 % of control.
In the case of `CCCCN(C)C(=O)c1ccc(C(=O)Nc2ccccc2N)s1` [Example 1-19, thiophene-2,5-dicarboxylic acid 2-[(2-amino-phenyl)-amide]5-(butyl-methyl-amide)], the “cell acetylation (PC3, 1 μM) [% of control]” value is reported as 118.8 % of control.
`CCC(C)NC(=O)c1ccc(C(=O)Nc2ccccc2N)s1` (stereo not shown) [Example 1-24, Thiophene-2,5-dicarboxylic acid 2-[(2-amino-phenyl)-amide]5-sec-butylamide] was tested, and the “cell acetylation (PC3, 1 μM) [% of control]” value was 211.2 % of control.
`CCC(C)CNC(=O)c1ccc(C(=O)Nc2ccccc2N)s1` (stereo not shown) [Example 1-35, Thiophene-2,5-dicarboxylic acid 2-[(2-amino-phenyl)-amide]5-[(2-methyl-butyl)-amide]] was tested, and the “cell acetylation (PC3, 1 μM) [% of control]” value was 135.4 % of control.
`NC(=O)c1ccc(C(=O)Nc2ccccc2N)s1` [Example 1-44, thiophene-2,5-dicarboxylic acid 2-amide 5-[(2-amino-phenyl)-amide]] was tested, and the “cell acetylation (PC3, 1 μM) [% of control]” value was 185.6 % of control.
With `CC(C)N(CCNC(=O)c1ccc(C(=O)Nc2ccccc2N)cn1)C(C)C` [Example 2-1, Pyridine-2,5-dicarboxylic acid 5-[(2-amino-phenyl)-amide]2-[(2-diisopropylamino-ethyl)-amide]] the “cell acetylation (PC3, 1 μM) [% of control]” value was 206.6 % of control.
`CC(C)N(CCNC(=O)c1ccc(C(=O)Nc2ccccc2N)nc1)C(C)C` [Example 3-1, pyridine-2,5-dicarboxylic acid 2-[(2-amino-phenyl)-amide]5-[(2-diisopropylamino-ethyl)-amide]] was tested, and the “cell acetylation (PC3, 1 μM) [% of control]” value was 244.8 % of control.
For `CN(C)CCNC(=O)c1ccc(C(=O)Nc2ccccc2N)nc1` [Example 3-5, pyridine-2,5-dicarboxylic acid 2-[(2-amino-phenyl)-amide]5-[(2-dimethylamino-ethyl)-amide]], the “cell acetylation (PC3, 1 μM) [% of control]” value was 154.6 % of control.
For `CCOC(=O)CC(C)NC(=O)c1ccc(C(=O)Nc2ccccc2N)nc1` (stereo not shown) [Example 3-9, 3-{[6-(2-amino-phenylcarbamoyl)-pyridine-3-carbonyl]-amino}-butyric acid ethyl ester], the “cell acetylation (PC3, 1 μM) [% of control]” value was 211.6 % of control.
`CCCCN(CCCC)CCCNC(=O)c1ccc(C(=O)Nc2ccccc2N)nc1` [Example 3-20, pyridine-2,5-dicarboxylic acid 2-[(2-amino-phenyl)-amide]5-[(3-dibutylamino-propyl)-amide]] was tested, and the “cell acetylation (PC3, 1 μM) [% of control]” value was 223.8 % of control.
In the case of `CC(C)N(CCNC(=O)c1ccc(C(=O)Nc2ccccc2N)cc1)C(C)C` [Example 4-1, N-(2-amino-phenyl)-N′-(2-diisopropylamino-ethyl)-terephthalamide], the “cell acetylation (PC3, 1 μM) [% of control]” value is reported as 399.3 % of control.
With `CC(=O)Nc1ccc(C(=O)Nc2ccccc2N)cc1` [Reference Compound, 4-acetylamino-N-(2-aminophenyl)-benzamide, reference compound] the “cell acetylation (PC3, 1 μM) [% of control]” value was 152 % of control.

From patent US7071219B2, “Mono-acylated o-phenylendiamines derivatives” (Hoffmann-La Roche Inc., priority 2004, dated 2006)
